Experimental data published in PubChem BioAssay (NCI).
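Briefly, cells in 96-well plates were exposed to five compound concentrations for 48 h, and endpoints were estimated by linear interpolation. GI50: concentration for 50% inhibition of growth. TGI is the concentration that stops growth completely.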

Legend:
Experiment in all cases: NCI-60 cell line screen, 48 h
A549 NSCLC = tested on: A549 NSCLC
CAKI-1 renal = tested on: CAKI-1 renal
HCT-15 colon = tested on: HCT-15 colon
MDA-N = tested on: MDA-N
RPMI-8226 leukemia = tested on: RPMI-8226 leukemia
SF-295 CNS = tested on: SF-295 CNS
SK-OV-3 ovarian = tested on: SK-OV-3 ovarian
SN12C renal = tested on: SN12C renal
UO-31 renal = tested on: UO-31 renal
BT-549 breast = tested on: BT-549 breast
UACC-257 melanoma = tested on: UACC-257 melanoma

Structure (SMILES): CCCN=C1NC(C)=CSC(Nc2ccccc2)=C1C#N
- TGI (A549 NSCLC): > 100 µM
- TGI (CAKI-1 renal): > 100 µM
- TGI (HCT-15 colon): > 100 µM
- TGI (MDA-N): > 100 µM
- TGI (RPMI-8226 leukemia): > 100 µM
- TGI (SF-295 CNS): > 100 µM
- TGI (SK-OV-3 ovarian): > 100 µM
- TGI (SN12C renal): > 100 µM
- TGI (UO-31 renal): > 100 µM

Structure (SMILES): Cc1ccc(C)n1-c1ccccc1C1C=Cn2c(=O)oc3c(OC(C)C)c(OC(C)C)c(O)c1c32 (stereo unspecified)
- TGI (A549 NSCLC): > 100 µM
- TGI (BT-549 breast): > 100 µM
- TGI (CAKI-1 renal): > 100 µM
- TGI (HCT-15 colon): > 100 µM
- TGI (RPMI-8226 leukemia): > 100 µM
- TGI (SF-295 CNS): > 100 µM
- TGI (SK-OV-3 ovarian): > 100 µM
- TGI (SN12C renal): > 100 µM
- TGI (UACC-257 melanoma): > 100 µM
- TGI (UO-31 renal): 31.9 µM

Structure (SMILES): CCOc1ccc2c(c1)C(/C(C(Cl)=C(Cl)Cl)=[N+](/[O-])OC(=O)c1ccccc1)=N2
- TGI (A549 NSCLC): > 100 µM
- TGI (BT-549 breast): 97.8 µM
- TGI (CAKI-1 renal): > 100 µM
- TGI (HCT-15 colon): > 100 µM
- TGI (MDA-N): > 100 µM
- TGI (SF-295 CNS): > 100 µM
- TGI (SK-OV-3 ovarian): > 100 µM
- TGI (SN12C renal): > 100 µM
- TGI (UACC-257 melanoma): > 100 µM
- TGI (UO-31 renal): > 100 µM

Structure (SMILES): [N-]=[N+]=Nc1cc(=O)[nH]c2ccccc12
- TGI (A549 NSCLC): > 100 µM
- TGI (BT-549 breast): > 100 µM
- TGI (CAKI-1 renal): > 100 µM
- TGI (MDA-N): > 100 µM
- TGI (RPMI-8226 leukemia): > 100 µM
- TGI (SF-295 CNS): > 100 µM
- TGI (SK-OV-3 ovarian): > 100 µM
- TGI (SN12C renal): > 100 µM
- TGI (UACC-257 melanoma): > 100 µM
- TGI (UO-31 renal): > 100 µM

Structure (SMILES): CCOC(=O)Cc1[nH]c(C(=O)c2ccccc2)cc1C(=O)c1ccccc1
- TGI (A549 NSCLC): 66.8 µM
- TGI (BT-549 breast): 38.7 µM
- TGI (HCT-15 colon): > 100 µM
- TGI (RPMI-8226 leukemia): > 10 µM
- TGI (SF-295 CNS): > 10 µM
- TGI (SK-OV-3 ovarian): > 100 µM
- TGI (SN12C renal): > 100 µM
- TGI (UACC-257 melanoma): > 10 µM
- TGI (UO-31 renal): > 10 µM

Structure (SMILES): CC(=O)/C=C(/C)[O-].CC(=O)/C=C(/C)[O-].CC(=O)[CH-]C(C)=O.CC(=O)[CH-]C(C)=O.[Zr+4]
- GI50 (SK-OV-3 ovarian): > 100 µM
- TGI (SK-OV-3 ovarian): > 100 µM
- GI50 (SN12C renal): > 100 µM
- TGI (SN12C renal): > 100 µM
- GI50 (UACC-257 melanoma): > 100 µM
- TGI (UACC-257 melanoma): > 100 µM
- GI50 (UO-31 renal): > 100 µM
- TGI (UO-31 renal): > 100 µM

Structure (SMILES): N#Cc1c(/C=C/c2ccccc2)c2c([nH]c1=S)CCCCC2
- TGI (A549 NSCLC): > 100 µM
- TGI (CAKI-1 renal): > 100 µM
- TGI (HCT-15 colon): > 100 µM
- TGI (MDA-N): > 100 µM
- TGI (RPMI-8226 leukemia): > 100 µM
- TGI (SF-295 CNS): > 100 µM
- TGI (SK-OV-3 ovarian): > 100 µM
- TGI (SN12C renal): > 100 µM
- TGI (UACC-257 melanoma): > 100 µM
- TGI (UO-31 renal): > 100 µM

Structure (SMILES): Cc1nc(N)c(N2CCN(S(=O)(=O)N(Cc3ccccc3)Cc3ccccc3)CC2)c(=O)[nH]1
- TGI (A549 NSCLC): > 100 µM
- TGI (BT-549 breast): > 100 µM
- TGI (HCT-15 colon): > 100 µM
- TGI (MDA-N): > 100 µM
- TGI (RPMI-8226 leukemia): > 100 µM
- TGI (SF-295 CNS): 65.8 µM
- TGI (SN12C renal): 80.7 µM
- TGI (UACC-257 melanoma): 61.5 µM
- TGI (UO-31 renal): > 100 µM

Structure (SMILES): COc1cc2c3c(n(C)c(=O)c2cc1OC)-c1cc2c(cc1/C3=C\CCCCl)OCO2
- TGI (A549 NSCLC): > 100 µM
- TGI (BT-549 breast): > 100 µM
- TGI (CAKI-1 renal): > 100 µM
- TGI (HCT-15 colon): > 100 µM
- TGI (MDA-N): > 100 µM
- TGI (SF-295 CNS): 99.2 µM
- TGI (SK-OV-3 ovarian): 49.3 µM
- GI50 (SN12C renal): > 100 µM
- TGI (SN12C renal): > 100 µM
- TGI (UACC-257 melanoma): > 100 µM
- TGI (UO-31 renal): > 100 µM

Structure (SMILES): CSc1ccc(N2C(=O)C3c4[nH]c5ccccc5c4C4CCC(C(C)(C)C)CC4C3C2=O)cc1 (stereo unspecified)
- TGI (A549 NSCLC): 33.5 µM
- TGI (CAKI-1 renal): 42.9 µM
- TGI (HCT-15 colon): > 100 µM
- TGI (RPMI-8226 leukemia): > 100 µM
- TGI (SF-295 CNS): 33.4 µM
- TGI (SK-OV-3 ovarian): 32.7 µM
- TGI (SN12C renal): 35.9 µM
- TGI (UACC-257 melanoma): > 100 µM
- TGI (UO-31 renal): 40.7 µM

Structure (SMILES): CCOP(=O)(OCC)C(Nc1ccc(Cl)cc1)c1ccc(F)cc1 (stereo unspecified)
- TGI (A549 NSCLC): > 100 µM
- TGI (CAKI-1 renal): 83.6 µM
- TGI (HCT-15 colon): > 100 µM
- TGI (MDA-N): 43.1 µM
- TGI (RPMI-8226 leukemia): 67.6 µM
- TGI (SF-295 CNS): 44.8 µM
- TGI (SK-OV-3 ovarian): > 100 µM
- TGI (SN12C renal): 53.2 µM
- TGI (UACC-257 melanoma): 44 µM
- TGI (UO-31 renal): 59.9 µM

Structure (SMILES): Cc1ccc2sc3c(NCCCN)nc4ccccc4c3c(=O)c2c1
- GI50 (BT-549 breast): 16.5 µM
- TGI (BT-549 breast): 37.4 µM
- GI50 (CAKI-1 renal): 1.67 µM
- TGI (CAKI-1 renal): 3.25 µM
- GI50 (HCT-15 colon): 1.61 µM
- TGI (HCT-15 colon): 3.15 µM
- GI50 (RPMI-8226 leukemia): 2.41 µM
- TGI (RPMI-8226 leukemia): 5.5 µM
- GI50 (SF-295 CNS): 1.8 µM
- TGI (SF-295 CNS): 3.32 µM
- GI50 (SN12C renal): 1.68 µM
- TGI (SN12C renal): 3.13 µM
- GI50 (UACC-257 melanoma): 2.04 µM
- TGI (UACC-257 melanoma): 4.21 µM
- GI50 (UO-31 renal): 1.51 µM
- TGI (UO-31 renal): 2.98 µM

Structure (SMILES): COC1(OC)CC(CO)(COc2cc(Cl)nc(N)n2)C1
- TGI (A549 NSCLC): > 100 µM
- TGI (BT-549 breast): > 100 µM
- TGI (CAKI-1 renal): > 100 µM
- TGI (HCT-15 colon): > 100 µM
- TGI (MDA-N): > 100 µM
- TGI (SF-295 CNS): > 100 µM
- TGI (SK-OV-3 ovarian): > 100 µM
- TGI (SN12C renal): > 100 µM
- TGI (UACC-257 melanoma): > 100 µM
- TGI (UO-31 renal): > 100 µM

Structure (SMILES): O=C(CSc1nc2ccc(I)cc2c(=O)n1Cc1ccccc1)Nc1ccccc1
- TGI (A549 NSCLC): > 100 µM
- TGI (BT-549 breast): 54.6 µM
- TGI (CAKI-1 renal): > 100 µM
- TGI (HCT-15 colon): > 100 µM
- TGI (MDA-N): > 100 µM
- TGI (RPMI-8226 leukemia): > 100 µM
- TGI (SF-295 CNS): 66.7 µM
- TGI (SK-OV-3 ovarian): 46.4 µM
- TGI (SN12C renal): > 100 µM
- TGI (UO-31 renal): 1.55 µM

Structure (SMILES): O=C(CC12C3C4C1C1C2C3C41CC(=O)NO)NO (stereo unspecified)
- TGI (A549 NSCLC): > 100 µM
- TGI (CAKI-1 renal): > 100 µM
- TGI (HCT-15 colon): > 100 µM
- TGI (RPMI-8226 leukemia): > 100 µM
- TGI (SF-295 CNS): > 100 µM
- TGI (SN12C renal): > 100 µM
- TGI (UACC-257 melanoma): 64.3 µM

Structure (SMILES): O=c1c(O)c(-c2ccccc2)oc2c(CP(=O)(O)O)cccc12
- TGI (A549 NSCLC): > 100 µM
- TGI (BT-549 breast): > 100 µM
- TGI (CAKI-1 renal): > 100 µM
- TGI (HCT-15 colon): > 100 µM
- TGI (MDA-N): > 100 µM
- TGI (SF-295 CNS): > 100 µM
- TGI (SK-OV-3 ovarian): > 100 µM
- TGI (SN12C renal): > 100 µM
- TGI (UACC-257 melanoma): > 100 µM

Structure (SMILES): COC(=O)N[C@@H]1C[C@H]2CC[C@]1(O[Si](C(C)C)(C(C)C)C(C)C)C(=O)C2
- TGI (A549 NSCLC): 55.7 µM
- TGI (CAKI-1 renal): > 100 µM
- TGI (HCT-15 colon): 41.4 µM
- TGI (MDA-N): 83.4 µM
- TGI (RPMI-8226 leukemia): 69.8 µM
- TGI (SF-295 CNS): 39.7 µM
- TGI (SK-OV-3 ovarian): 46.5 µM
- TGI (SN12C renal): > 100 µM
- TGI (UACC-257 melanoma): 38.4 µM
- TGI (UO-31 renal): 32 µM

Structure (SMILES): CC(=O)NC1C(OCc2ccccc2)OC(CO)C(O)C1OC(C)C(=O)NC(C(=O)NC(CCC(=O)NCCCNc1ccc([N+](=O)[O-])c2[nH]c3ccccc3c(=O)c12)C(N)=O)C(C)C (stereo unspecified)
- TGI (A549 NSCLC): > 100 µM
- TGI (BT-549 breast): > 100 µM
- TGI (CAKI-1 renal): > 100 µM
- TGI (HCT-15 colon): > 100 µM
- TGI (MDA-N): > 100 µM
- TGI (SF-295 CNS): > 100 µM
- TGI (SK-OV-3 ovarian): > 100 µM
- TGI (SN12C renal): > 100 µM
- TGI (UACC-257 melanoma): > 100 µM
- TGI (UO-31 renal): > 100 µM

Structure (SMILES): NC1(c2cc3ccccc3s2)CCCCCC1
- TGI (A549 NSCLC): 34.2 µM
- TGI (BT-549 breast): 32.6 µM
- TGI (CAKI-1 renal): 26.8 µM
- TGI (HCT-15 colon): 36.9 µM
- TGI (MDA-N): 30.4 µM
- TGI (SF-295 CNS): 32.5 µM
- TGI (SK-OV-3 ovarian): 31.2 µM
- TGI (SN12C renal): 31 µM
- TGI (UACC-257 melanoma): 30.1 µM
- TGI (UO-31 renal): 28.1 µM

Structure (SMILES): [N-]=[N+]=C(C(=O)CN1CCCC1=O)S(=O)(=O)c1ccccc1
- TGI (A549 NSCLC): > 100 µM
- TGI (BT-549 breast): > 100 µM
- TGI (HCT-15 colon): > 100 µM
- TGI (MDA-N): > 100 µM
- TGI (RPMI-8226 leukemia): > 100 µM
- TGI (SF-295 CNS): > 100 µM
- TGI (SN12C renal): > 100 µM
- TGI (UACC-257 melanoma): > 100 µM
- TGI (UO-31 renal): > 100 µM
